Reference: US20140005163A1 (NOVARTIS AG, priority 2010, published 2014)
In brackets after ≈: the same amount, converted by molar mass.

Experiments:
PI3K delta = target: T1, PI3K delta (Homo sapiens, UniProt O00329); assay: PI3K delta kinase assay (Kinase-Glo luminescence); assay type: biochemical
T1 construct: for the full-length p110-d subunit are generated and fused by overlapping PCR; p85(iSH2) fusion partner (see partner chain) (N); His tag (C); made in house; host or cells: baculovirus; Tn5 (Trichoplusia ni) or TiniPro insect cells
Method in brief: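 Construct BV-1060, p85 iSH2–linker–full-length p110δ, His-tagged, at 10 nM, with 1 μM ATP and 10 μg/mL phosphatidylinositol in pH 7.5 Tris, 3 mM MgCl2, 50 mM NaCl, 0.05% CHAPS. Run 60 min at room temperature; remaining ATP read by Kinase-Glo luminescence; IC50 from 4-parameter logistic fit of 8 concentrations.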

Solubility at pH 6.8 = assay type: physicochemical; conditions: pH 6.8, aqueous buffer, thermodynamic from solid; read-out: solubility
Description: The physicochemical properties of relevance for the absorption of the compound, such as the solubility and the membrane permeability, especially at a pH close to neutral pH can be measured using the procedure as described by L. ZHOU et al. in JOURNAL OF PHARMACEUTICAL SCIENCES, VOL. 96, NO. 11, p. 3052-3071 (2007) for the solubility at pH 6.8 and the procedure as described by F. Wohnsland and B. Faller in Journal of Medicinal Chemistry Vol 44, p. 923-930 (2001) for the Parallel Artificial Membrane Permeability Assay (PAMPA) at pH 6.8.

PI3K beta = target: T2, PI3K beta (Homo sapiens, UniProt P42338); assay: PI3K beta kinase assay (Kinase-Glo luminescence); assay type: biochemical
T2 construct: for the full-length p110-b subunit are generated and fused by overlapping PCR; p85(iSH2) fusion partner (see partner chain) (N); His tag (C); made in house; host or cells: baculovirus; Tn5 (Trichoplusia ni) or TiniPro insect cells
Experimental: (§1) In a more preferred assay, the kinase reaction is performed in a final volume of 10 μL per well of a low volume non binding CORNING, 384 well black plate (Cat. No. #3676). The final concentrations of ATP and phosphatidyl inositol (PI) in the assay are 1 μM and 10 μg/mL respectively. The reaction is started by the addition of ATP.
(§2) The components of the assay are added per well as follows:
(§3) […] in 90% DMSO per well, in columns 1-20, 8 concentrations (1/3 and 1/3.33 serial dilution step) in single. • Low control: […] of 90% DMSO in half the wells of columns 23-24 (0.45% in final). • High control: […] of reference compound (e.g. compound of Example 7 in WO 2006/122806) in the other half of columns 23-24 (2.5 μM in final). • Standard: […] of reference compound as just mentioned diluted as the test compounds in columns 21-22 • 20 mL ‘buffer’ are prepared per assay: • 200 μL of 1M TRIS HCl pH7.5 (10 mM in final) • 60 μL of 1M MgCl2 (3 mM in final) • 500 μL of 2M NaCl (50 mM in final) • 100 μL of 10% CHAPS (0.05% in final) • 200 μL of 100 mM DTT (1 mM in final) • 18.94 mL of nanopure water • 10 mL ‘PI’ are prepared per assay: • 200 μL of 1 mg/ml L-alpha-Phosphatidylinositol (Liver Bovine, Avanti Polar Lipids Cat. No. 840042C MW=909.12) prepared in 3% OctylGlucoside (10 μg/ml in final) • 9.8 mL of ‘buffer’ • 10 mL ‘ATP’ are prepared per assay: • 6.7 μL of 3 mM stock of ATP giving a final concentration of 1 μM per well • 10 mL of ‘buffer’ • 2.5 mL of each PI3K construct are prepared per assay in ‘PI’ with the following final concentration: • 10 nM PI3K alfa EMV B1075 • 25 nM beta EMV BV949 • 10 nM delta EMV BV1060 • 150 nM gamma EMV BV950 • 5 μL of ‘PI/PI3K’ are added per well. • 5 μl ‘ATP’ are added per well to start the reaction. • The plates are then incubated at room temperature for 60 minutes (alfa, beta, delta) or 120 minutes (gamma). • The reaction is terminated by the addition of 10 μL Kinase-Glo (Promega Cat. No. #6714). • The assay plates are read after 10 minutes in Synergy 2 reader (BioTek, Vermont USA) with an integration time of 100 milliseconds and sensitivity set to 191. • Output: The High control is around 60'000 counts and the Low control is 30'000 or lower • This luminescence assay gives a useful Z′ ratio between 0.4 and 0.7
PI3Kβ BV-949 p85(iSH2)-Gly Linker-p110b(Full-Length)-C-Term his Tag
(§4) IC50 is determined by a four parameter curve fitting routine that comes along with “excel fit”. […] Alternatively, IC50 values are calculated using idbsXLfit model 204, which is a 4 parameter logistic model.

PI3K alpha = target: T3, PI3K alpha (Homo sapiens, UniProt P42336); assay: PI3K alpha kinase assay (Kinase-Glo luminescence); assay type: biochemical
T3 construct: p85(iSH2) fusion partner (see partner chain) (N); His tag (C); made in house; host or cells: baculovirus; Tn5 (Trichoplusia ni) or TiniPro insect cells
Method in brief: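 PI3K alpha at 10 nM with 1 μM ATP and 10 μg/mL phosphatidylinositol in 10 mM TRIS pH 7.5, 3 mM MgCl2, 50 mM NaCl, 0.05% CHAPS, 1 mM DTT, 60 min at room temperature. Remaining ATP read by Kinase-Glo luminescence. IC50 by 4-parameter fit over 8 concentrations.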

[1] = test system: PKB Ser473 phosphorylation in Rat1-myr-HA-p110 alpha cells; assay: Reverse protein array assay, PKB Ser473 phosphorylation in Rat1-myr-p110 alpha cells; assay type: cell-based; conditions: 0.5 h, pAkt Ser473, 30 minutes compound incubation, read-out: p-PKB IC50
Method in brief: (§5)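 Lysates were arrayed at four dilutions, and phospho-PKB Ser473 was quantified by relative fluorescence signal. They came from Rat1-myr-HA-p110 alpha, beta or delta cells exposed for 30 min at 37 °C to an 8-point compound series with 0.2% DMSO constant.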

[2] = test system: PKB Ser473 phosphorylation in Rat1-myr-HA-p110 delta cells; assay: Reverse protein array assay, PKB Ser473 phosphorylation in Rat1-myr-p110 delta cells; assay type: cell-based; conditions: read-out: p-PKB IC50
Method in brief: as §5

[3] = test system: PKB Ser473 phosphorylation in Rat1-myr-HA-p110 beta cells; assay: Reverse protein array assay, PKB Ser473 phosphorylation in Rat1-myr-p110 beta cells; assay type: cell-based; conditions: 0.5 h, pAkt Ser473, 30 minutes incubation, read-out: p-PKB IC50
Method in brief: as §5

PI3K gamma = target: T4, PI3K gamma (Homo sapiens, UniProt P48736); assay: PI3K gamma kinase assay (Kinase-Glo luminescence); assay type: biochemical
T4 construct: His tag (C); made in house; host or cells: baculovirus (pVL1393); Tn5 or TiniPro insect cells; construct from Roger Williams lab, MRC LMB
Experimental: as §1, §2, §3, §4

mTOR = target: T5, mTOR (Homo sapiens, UniProt P42345); assay: Biochemical assay for m-TOR by TR-FRET; conditions: 8 μM ATP, 400 nM GFP-4EBP1, 0.5 nM mTOR
T5 construct: purchased Invitrogen Corporation (Carlsbad/CA, USA) PV4753
Method in brief: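 mTOR (0.5 nM) was incubated at rt with ATP (8 μM final) and GFP-4EBP1 (400 nM final) in 50 mM HEPES pH 7.5, 10 mM MnCl2, 50 mM NaCl, 1 mM EGTA, 1 mM DTT. EDTA stop with Tb3+-anti-p4EBP1 [pThr46] antibody (0.5 nM); TR-FRET read 15 min later.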

[4] = test system: S6 Ribosomal Protein phosphorylation Ser235/236 in TSC1 null mouse embryo fibroblast (MEF) cells; assay: Reverse protein array assay, S6 Ribosomal Protein phosphorylation Ser235/236 in TSC1 null MEF cells; assay type: cell-based; conditions: 1 h, pS6 ribosomal protein Ser235/236, 60 minutes incubation, read-out: p-S6 IC50
Method in brief: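 TSC1−/− MEFs, seeded and held ≥20 h at 37 °C/5% CO2, were exposed to 8-step serial compound dilutions (0.02% DMSO final; DMSO vehicle control) for 60 min at 37 °C. Cells were then lysed on ice for 10 min and lysates spotted onto reverse protein array chips.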

T5 sequence (P42345 1360-2549 limits assumed): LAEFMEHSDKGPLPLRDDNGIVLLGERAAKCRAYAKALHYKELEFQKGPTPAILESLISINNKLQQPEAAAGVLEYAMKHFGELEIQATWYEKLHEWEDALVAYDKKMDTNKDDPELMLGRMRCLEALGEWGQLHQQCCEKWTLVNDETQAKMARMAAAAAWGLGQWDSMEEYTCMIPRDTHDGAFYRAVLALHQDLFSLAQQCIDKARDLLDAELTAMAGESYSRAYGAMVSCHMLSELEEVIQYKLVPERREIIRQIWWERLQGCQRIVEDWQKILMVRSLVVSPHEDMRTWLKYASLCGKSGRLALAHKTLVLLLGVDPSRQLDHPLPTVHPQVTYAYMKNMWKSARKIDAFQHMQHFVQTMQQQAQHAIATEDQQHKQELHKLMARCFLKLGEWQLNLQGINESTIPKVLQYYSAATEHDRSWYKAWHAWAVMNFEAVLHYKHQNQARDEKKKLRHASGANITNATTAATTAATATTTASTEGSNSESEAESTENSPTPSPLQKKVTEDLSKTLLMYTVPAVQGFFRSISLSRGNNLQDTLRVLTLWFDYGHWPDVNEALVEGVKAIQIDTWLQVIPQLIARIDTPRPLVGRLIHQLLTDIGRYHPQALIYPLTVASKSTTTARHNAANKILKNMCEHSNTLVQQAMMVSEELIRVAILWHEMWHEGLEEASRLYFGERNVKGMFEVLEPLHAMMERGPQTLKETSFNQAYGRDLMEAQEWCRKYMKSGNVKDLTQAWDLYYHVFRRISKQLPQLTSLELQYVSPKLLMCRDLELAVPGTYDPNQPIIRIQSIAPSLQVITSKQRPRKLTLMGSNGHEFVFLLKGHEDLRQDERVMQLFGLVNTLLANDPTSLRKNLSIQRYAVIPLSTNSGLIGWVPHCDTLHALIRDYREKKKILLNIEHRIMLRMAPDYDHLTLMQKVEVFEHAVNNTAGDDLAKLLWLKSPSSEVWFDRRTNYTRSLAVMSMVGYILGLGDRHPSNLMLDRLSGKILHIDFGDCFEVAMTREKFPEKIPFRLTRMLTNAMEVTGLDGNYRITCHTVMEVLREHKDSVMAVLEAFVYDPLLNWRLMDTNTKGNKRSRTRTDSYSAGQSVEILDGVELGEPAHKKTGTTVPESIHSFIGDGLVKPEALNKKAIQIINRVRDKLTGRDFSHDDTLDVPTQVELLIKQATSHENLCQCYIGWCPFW
T2 sequence (P42338 with tags, fused parts or gaps limits assumed): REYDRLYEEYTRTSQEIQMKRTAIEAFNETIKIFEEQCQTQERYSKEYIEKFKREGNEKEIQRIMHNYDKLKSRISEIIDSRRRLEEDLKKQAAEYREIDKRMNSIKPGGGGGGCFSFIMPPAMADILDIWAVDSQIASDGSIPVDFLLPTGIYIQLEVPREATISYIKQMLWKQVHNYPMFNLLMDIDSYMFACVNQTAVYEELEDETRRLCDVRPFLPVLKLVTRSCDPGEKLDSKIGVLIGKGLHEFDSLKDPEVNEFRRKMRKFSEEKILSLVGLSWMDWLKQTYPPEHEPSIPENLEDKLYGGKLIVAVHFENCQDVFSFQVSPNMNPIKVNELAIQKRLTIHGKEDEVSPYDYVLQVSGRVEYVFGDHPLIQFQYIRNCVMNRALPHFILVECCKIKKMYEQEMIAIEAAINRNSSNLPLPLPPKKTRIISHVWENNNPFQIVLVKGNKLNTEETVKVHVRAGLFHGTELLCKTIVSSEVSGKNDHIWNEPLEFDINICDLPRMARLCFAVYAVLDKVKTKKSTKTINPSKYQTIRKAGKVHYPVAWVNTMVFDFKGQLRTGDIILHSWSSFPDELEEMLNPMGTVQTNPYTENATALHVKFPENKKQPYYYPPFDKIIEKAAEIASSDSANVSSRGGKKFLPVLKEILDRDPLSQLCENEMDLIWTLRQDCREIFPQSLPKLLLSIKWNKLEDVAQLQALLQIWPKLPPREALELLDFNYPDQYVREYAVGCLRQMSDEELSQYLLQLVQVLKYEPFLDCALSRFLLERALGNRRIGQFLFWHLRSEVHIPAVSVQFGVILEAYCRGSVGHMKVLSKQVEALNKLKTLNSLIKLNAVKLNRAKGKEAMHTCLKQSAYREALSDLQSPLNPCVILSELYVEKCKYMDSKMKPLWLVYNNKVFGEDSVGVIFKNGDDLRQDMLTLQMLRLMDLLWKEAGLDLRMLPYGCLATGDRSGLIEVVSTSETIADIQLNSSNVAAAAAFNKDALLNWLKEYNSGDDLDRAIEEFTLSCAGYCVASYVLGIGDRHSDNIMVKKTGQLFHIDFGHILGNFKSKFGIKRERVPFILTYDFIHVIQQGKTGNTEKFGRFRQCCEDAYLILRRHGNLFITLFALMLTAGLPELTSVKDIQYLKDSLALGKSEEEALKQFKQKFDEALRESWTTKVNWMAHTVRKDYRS
T1 sequence (O00329 with tags, fused parts or gaps limits assumed): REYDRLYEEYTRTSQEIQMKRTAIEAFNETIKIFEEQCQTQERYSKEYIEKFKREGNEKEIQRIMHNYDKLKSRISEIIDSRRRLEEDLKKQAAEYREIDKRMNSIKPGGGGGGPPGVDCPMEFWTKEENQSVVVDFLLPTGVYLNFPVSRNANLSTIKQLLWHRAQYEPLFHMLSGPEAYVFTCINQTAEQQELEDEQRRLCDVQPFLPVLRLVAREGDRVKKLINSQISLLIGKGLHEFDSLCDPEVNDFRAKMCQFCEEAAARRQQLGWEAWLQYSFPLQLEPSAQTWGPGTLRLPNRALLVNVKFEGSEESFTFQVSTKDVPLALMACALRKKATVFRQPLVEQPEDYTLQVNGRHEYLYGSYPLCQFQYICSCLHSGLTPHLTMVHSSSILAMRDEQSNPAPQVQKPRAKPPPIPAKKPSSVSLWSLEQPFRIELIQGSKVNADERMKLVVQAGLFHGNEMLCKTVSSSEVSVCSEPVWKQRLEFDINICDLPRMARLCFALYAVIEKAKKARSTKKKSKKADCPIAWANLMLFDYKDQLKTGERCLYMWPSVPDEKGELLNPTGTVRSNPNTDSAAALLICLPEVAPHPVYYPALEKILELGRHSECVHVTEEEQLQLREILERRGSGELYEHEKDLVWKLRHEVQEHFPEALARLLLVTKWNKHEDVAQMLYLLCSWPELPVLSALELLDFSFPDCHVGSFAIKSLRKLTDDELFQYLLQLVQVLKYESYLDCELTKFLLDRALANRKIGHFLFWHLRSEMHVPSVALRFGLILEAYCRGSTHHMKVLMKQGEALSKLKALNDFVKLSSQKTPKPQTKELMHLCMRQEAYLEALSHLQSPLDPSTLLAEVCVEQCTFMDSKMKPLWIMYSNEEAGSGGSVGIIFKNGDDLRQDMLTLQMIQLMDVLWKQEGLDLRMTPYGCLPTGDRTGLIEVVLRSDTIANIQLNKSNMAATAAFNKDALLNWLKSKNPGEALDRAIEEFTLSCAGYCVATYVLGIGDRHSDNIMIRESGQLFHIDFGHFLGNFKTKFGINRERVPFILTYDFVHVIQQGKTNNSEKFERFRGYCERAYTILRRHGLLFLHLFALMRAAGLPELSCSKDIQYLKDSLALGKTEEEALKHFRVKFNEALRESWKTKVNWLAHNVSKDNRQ
T3 sequence (P42336 with tags, fused parts or gaps limits assumed): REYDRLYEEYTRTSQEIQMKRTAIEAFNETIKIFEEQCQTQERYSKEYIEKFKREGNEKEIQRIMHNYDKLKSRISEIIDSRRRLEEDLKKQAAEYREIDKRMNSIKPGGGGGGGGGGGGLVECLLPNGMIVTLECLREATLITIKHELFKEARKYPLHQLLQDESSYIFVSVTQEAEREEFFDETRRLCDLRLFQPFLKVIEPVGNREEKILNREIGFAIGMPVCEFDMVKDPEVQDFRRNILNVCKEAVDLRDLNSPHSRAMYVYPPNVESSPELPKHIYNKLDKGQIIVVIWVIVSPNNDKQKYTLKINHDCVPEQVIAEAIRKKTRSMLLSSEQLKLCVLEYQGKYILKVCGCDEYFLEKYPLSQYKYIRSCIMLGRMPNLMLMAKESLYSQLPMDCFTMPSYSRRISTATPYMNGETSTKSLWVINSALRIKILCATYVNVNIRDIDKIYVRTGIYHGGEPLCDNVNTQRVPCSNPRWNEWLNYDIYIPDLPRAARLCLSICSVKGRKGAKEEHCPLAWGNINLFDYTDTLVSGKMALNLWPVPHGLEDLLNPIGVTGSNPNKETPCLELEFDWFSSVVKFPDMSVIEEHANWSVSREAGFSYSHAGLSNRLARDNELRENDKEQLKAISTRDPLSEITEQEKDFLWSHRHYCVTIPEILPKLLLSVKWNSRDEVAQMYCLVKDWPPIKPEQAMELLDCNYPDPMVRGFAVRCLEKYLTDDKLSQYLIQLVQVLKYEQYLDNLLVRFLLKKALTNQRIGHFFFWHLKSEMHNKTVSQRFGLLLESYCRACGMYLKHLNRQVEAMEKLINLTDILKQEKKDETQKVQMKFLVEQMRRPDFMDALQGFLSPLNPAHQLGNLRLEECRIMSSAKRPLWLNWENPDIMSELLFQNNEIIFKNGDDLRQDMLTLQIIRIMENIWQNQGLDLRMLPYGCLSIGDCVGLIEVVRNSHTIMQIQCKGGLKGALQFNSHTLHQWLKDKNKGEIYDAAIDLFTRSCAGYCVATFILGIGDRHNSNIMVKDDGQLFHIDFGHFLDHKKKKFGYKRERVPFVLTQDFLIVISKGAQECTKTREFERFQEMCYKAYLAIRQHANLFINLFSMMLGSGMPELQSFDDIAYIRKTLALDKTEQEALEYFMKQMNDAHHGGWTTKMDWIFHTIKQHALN

Row | Compound | IC50 (PI3K delta) [nM] | solubility (Solubility at pH 6.8) [µg/mL] | IC50 (PI3K beta) [nM] | IC50 (PI3K alpha) [nM] | IC50 [1] [nM] | IC50 [2] [nM] | IC50 [3] [nM] | IC50 (PI3K gamma) [nM] | IC50 (mTOR) [nM] | IC50 [4] [nM]
1 | CCOc1ccc(-c2ccc3ncc4c(c3c2)n(-c2c(C)nn(CCOC)c2C)c(=O)n4C)cn1 [Example 3.11, 8-(6-Ethoxy-pyridin-3-yl)-1-[1-(2-methoxy-ethyl)-3,5-dimethyl-1H-pyrazol-4-yl]-3-methyl-1,3-dihydro-imidazo[4,5-c]quinolin-2-one] | 228 | > 473 | 473 | 207 | 237 | 772 | 510 | – | – | –
2 | Cc1nn(C)cc1-n1c(=O)n(C)c2cnc3ccc(-c4ccc(OCCOCc5ccccc5)nc4)cc3c21 [Example 19, 8-[6-(2-Benzyloxy-ethoxy)-pyridin-3-yl]-1-(1,3-dimethyl-1H-pyrazol-4-yl)-3-methyl-1,3-dihydro-imidazo[4,5-c]quinolin-2-one] | 468 | – | – | 482 | – | – | – | 971 | – | –
3 | Cc1nn(C)cc1-n1c(=O)n(C)c2cnc3ccc(-c4cncc(N)c4)cc3c21 [Example 45] | – | – | – | – | – | – | – | 283 | – | –
4 | CCOc1cc(-c2ccc3ncc4c(c3c2)n(-c2c(C)nn(CCOC)c2C)c(=O)n4C)cnc1C [Example 85.2, 8-(5-Ethoxy-6-methyl-pyridin-3-yl)-1-[1-(2-methoxy-ethyl)-3,5-dimethyl-1H-pyrazol-4-yl]-3-methyl-1,3-dihydro-imidazo[4,5-c]quinolin-2-one] | 57 | > 487 | 139 | 46 | 187 | 224 | 516 | – | – | –
5 | CCn1cc(-n2c(=O)n(C)c3cnc4ccc(-c5cnc(COC)c(NC)c5)cc4c32)c(C)n1 [Example 160.2, 1-(1-Ethyl-3-Methyl-1H-pyrazol-4-yl)-8-(6-methoxymethyl-5-methylamino-pyridin-3-yl)-3-methyl-1,3-dihydro-imidazol[4,5-c]quinolin-2-one] | 16 | 237 (≈ 518 µM) | 130 | 39 | – | – | – | – | 25 | –
6 | COCc1cc(-c2ccc3ncc4c(c3c2)n(-c2cn(C)nc2Cl)c(=O)n4C)cnc1N [Example 168.3, 8-(6-Amino-5-methoxymethyl-pyridin-3-yl)-1-(3-chloro-1-methyl-1H pyrazol-4-yl)-3-methyl-1,3-dihydro-imidazo[4,5-c]quinolin-2-one] | – | 14 (≈ 31.1 µM) | – | – | 10 | 7 | 6 | – | < 3 | < 0.5
7 | COCCn1nc(C)c(-n2c(=O)n(C)c3cnc4ccc(-c5cncc(NC(C)C)c5)cc4c32)c1C [Example 177.2, 8-(5-Isopropylamino-pyridin-3-yl)-1-[1-(2-methoxy-ethyl)-3,5-dimethyl-1H-pyrazol-4-yl]-3-methyl-1,3-dihydro-imidazo[4,5-c]quinolin-2-one] | 70 | 479 (≈ 986 µM) | 327 | 70 | 124 | 559 | 494 | – | – | –
8 | CCc1ncc(-c2ccc3ncc4c(c3c2)n(-c2cn(C)nc2C)c(=O)n4C)cc1OC(C)C [Example 186, 1-(1,3-Dimethyl-1H-pyrazol-4-yl)-8-(6-ethyl-5-isopropoxy-pyridin-3-yl)-3-methyl-1,3-dihydro-imidazo[4,5-c]quinolin-2-one] | – | 8 (≈ 17.5 µM) | – | – | < 5 | 27 | 34 | – | 56 | 1.02
9 | Cn1cc(-n2c(=O)n(C)c3cnc4ccc(-c5cncc(C(C)(C)O)c5)cc4c32)c(Cl)n1 [Example 215.3, 1-(3-Chloro-1-methyl-1H-pyrazol-4-yl)-8-[5-(1-hydroxy-1-methyl-ethyl)-pyridin-3-yl]-3-methyl-1,3-dihydroimidazo[4,5-c]quinolin-2-one] | – | 21 (≈ 46.8 µM) | – | – | 13 | 22 | 16 | – | 7 | 1
10 | Cc1nn(C)cc1-n1c(=O)n(C)c2cnc3ccc(-c4cncc(CN)c4)cc3c21 [Example 230, 8-(5-Aminomethyl-pyridin-3-yl)-1-(1,3-dimethyl-1H-pyrazol-4-yl)-3-methyl-1,3-dihydro-imidazo[4,5-c]quinolin-2-one] | 437 | > 399 | 344 | 100 | – | – | – | – | 465 | –
11 | Cc1nn(C)cc1-n1c(=O)n(C)c2cnc3ccc(-c4cncc(CNS(C)(=O)=O)c4)cc3c21 [Example 232] | 60 | 83 (≈ 174 µM) | 101 | 44 | – | – | – | – | 56 | –
